Laboratory results reported in patent US12409173B2, “Repurposing FDA-approved drugs as a novel cancer therapeutic avenue through inhibition of PRMT5” (priority 2019, dated 2025).
pIC50: −log10 of the molar value.

Tests used:
[1] = target: T1, PRMT5 (Homo sapiens, UniProt O14744); assay: AlphaLISA PRMT5 methyltransferase assay (biotin-H4R3 substrate, SAM); assay type: biochemical; details: PRMT5 methyltransferase activity, FIG. 3C; read-out: IC50 binding affinities by AlphaLISA assay
T1 construct: Flag; made in house; host or cells: 293 cells
From the text: For AlphaLISA HTS: the substrate, histone H4 peptide unmethylated at arginine (R) 3 (unmeH4R3) was purchased from AnaSpec (Fremont, CA). The 23-amino acid H4R3 peptide was biotinylated at its N′ terminus: […]-K(biotin)-NH2 (SEQ ID NO: 1). S-adenosyl methionine (SAM) was used as a methyl group donor (New England Biolabs, Ipswich, MA). Compound libraries comprising of FDA-approved drugs, synthetic and semi-synthetic natural products as well as bioactives were collectively purchased from Analyticon Discovery (Rockville, MD), MilliporeSigma (Burlington, MA) and Microsource Discovery Systems Inc (Gaylordsville, CT). Acceptor beads specific for dimethylated H4R3, Donor beads with a streptavidin tag, assay buffer, OptiPlate™ 384-well white bottom plates, TopSeal™-A film to seal the plates and EnVision® Multilabel Reader were sourced from PerkinElmer (Waltham, MA). […]
A detailed description of optimization of the AlphaLISA HTS screening protocol has already been published previously. […] Alpha signal was then quantified using the EnVision® reader.
To design a drug screen to check for compounds that had the potential to inhibit PRMT5 methyltransferase activity, the AlphaLISA assay was utilized. […] This emitted AlphaLISA signal is directly proportional to the methyltransferase activity of PRMT5, thus allowing for quantification of its enzymatic activity.

[2] = test system: PANC1, HT29 and MCF7 xenografts; assay: Xenograft tumor growth in NSG mice (PANC1, HT29, MCF7); assay type: in vivo; details: PANC1, HT29 or MCF7 xenografts, 100 mg/kg oral gavage daily
Protocol: (§1) Male and female NSG mice were obtained from the In Vivo Therapeutics Core at Indiana University School of Medicine. After acclimation for 7 days, NSG mice (5-6 weeks old) were xenografted with Mycoplasma-free PANC1, MCF7 or HT29 cells subcutaneously (1×10^7 PANC1, 3×10^6 MCF7 or 3×10^6 HT29 cells used per mouse in 0.2 ml of a 1:1 mix of serum free DMEM media, or serum free RPMI media and Matrigel). Male mice were xenografted with PANC1 and HT29 cells. Female mice were xenografted with MCF7 cells. 5 mice were randomized in each group when tumor volumes reached ˜50 mm^3. Mice were treated with either vehicle control (10% DMSO, 20% PEG400, 5% Tween 80 and 65% sterile water), 100 mg/kg or 200 mg/kg candesartan cilexetil dissolved in the vehicle, or 100 mg/kg or 200 mg/kg cloperastine dissolved in the vehicle through oral gavage daily. Tumor volumes were measured 4 times per week and body weights were measured twice a week. The study was performed in accordance with the guidelines and standards of the Institutional Animal Care and Use Committee (IACUC)

[3] = test system: IL8 and TNFα mRNA expression; assay: qRT-PCR of NF-κB target genes IL8 and TNFα; assay type: cell-based; details: PANC1, HT29 and MDA-MB-231 cells; 48 hours; vs untreated
Protocol: Following treatment with either Clo or Can for 48 hours, total RNA was isolated from the respective cell lines using Trizol as described earlier. First strand complementary DNA was generated using SuperScript III First-Strand Synthesis Kit (Invitrogen, Carlsbad, CA). Following this, qPCR was executed using FastStart Universal SYBR Green kit (Roche, Indianapolis, IN).

[4] = test system: NF-κB activation; assay: NF-κB luciferase assay; assay type: cell-based; details: increasing concentrations; PANC1, HT29 and MDA-MB-231 cells; 48 hours
Protocol: The NF-κB luciferase lentiviral construct pLA-NFκBmCMV-luc-H4-puro (containing five tandem copies of the NF-κB site from the IP10 gene) was introduced in the respective cell lines using Lipofectamine™ LTX Reagent and PLUS Reagents (Thermo Fisher Scientific). Luciferase activity was measured after 48 hours (with or without drug treatment) using Reporter Lysis Buffer kit (Promega, Madison, WI) as per manufacturer's instructions and the Synergy H4 Reader.

[5] = test system: PRMT5-mediated R30 dimethylation of p65 (NF-κB); assay: Western blot for symmetric dimethylation of p65 at R30; assay type: cell-based; details: PANC1, HT29 and MDA-MB-231 cells; treated at MTT IC50 values; vs untreated
Protocol: Primary antibodies for symmetric dimethylation at arginine (R) 30 subunit of p65 (detected by generating a customized polyclonal primary antibody in collaboration with GenScript Inc, Piscataway, NJ) and […] (Sigma-Aldrich) with their corresponding secondary antibodies were used.
PDAC, CRC and BC cells were pelleted post treatment with either Clo or Can in phosphate buffered saline (PBS). Pellets were lysed by overnight incubation at −80° C. as well as addition of lysis buffer [(10 mM Tris-Cl pH 8.0, 1 mM EDTA, 1% Triton X, 0.1% sodium deoxycholate, 0.1% SDS (sodium dodecyl sulfate), 14 mM NaCl, 1 mM phenylmethylsulfonyl fluoride]. Protein concentration for each sample was determined using Protein Assay Reagent (Biorad, Hercules, CA). Equal protein concentrations were run on a 10% SDS-PAGE (polyacrylamide gel electrophoresis) gel and transferred using polyvinylidene fluoride membrane (Thermo Fisher Scientific). Membranes were exposed to respective primary and secondary antibodies at dilutions and times based on manufacturer's instructions. Protein signal was detected using enhanced chemiluminescence (ECL) reagent (PerkinElmer).

[6] = test system: BC cells (MD-MB-231 and BT20); assay: MTT cell viability assay, BC cells; assay type: cell-based; details: 4 days
Protocol: (§2) Cells were grown to 60% density in clear flat-bottom 96-well plates (Corning Inc, Corning, NY) for 24 hours and treated with a range of concentrations of either Clo or Can respectively, followed by incubation for 4 days. 10 μl of MTT dye (Sigma-Aldrich) was added to each well and incubated for 2 hours at 37° C. The media:MTT mixture was then removed and 10 μl DMSO was added per well. Absorbance was measured using Synergy H4 Multi-Mode Reader (BioTek Instruments, Winooski, VT).

[7] = parameters: species or system mice; details: mouse, in vivo, po, 100 mg/kg
Protocol: as §1

[8] = test system: CRC cell lines (HT29, HCT116 and DLD1); assay: MTT cell viability assay, CRC cells; assay type: cell-based; details: 4 days
Protocol: as §2

[9] = test system: PANC1, HT29 and MDA-MB231 cells; assay: Three-dimensional (3D) colony formation assay; assay type: cell-based; details: increasing concentrations, 72 hours of drug treatment
Protocol: PANC1 and MDA-MB-231 (1000 cells) as well as HT29 (250 cells) were seeded per well within ultra-low attachment plates (Corning Inc) in media comprising 3% Reduced Growth Factor-Matrigel (BD Biosciences, Franklin Lakes, NJ). Clo and Can were added in a concentration range from 5-100 μM and 5-120 μM respectively after seeding for 48 hours. After 72 hours of drug treatment, the cells were stained using 10% Alamar blue dye (Fisher) and fluorescence was quantified using a Synergy H4 Reader.

[10] = test system: PDAC cells (PANC1, MiaPaCa2 and AsPC1); assay: MTT cell viability assay, PDAC cells; assay type: cell-based; details: 4 days
Protocol: as §2

T1 sequence (O14744 whole entry): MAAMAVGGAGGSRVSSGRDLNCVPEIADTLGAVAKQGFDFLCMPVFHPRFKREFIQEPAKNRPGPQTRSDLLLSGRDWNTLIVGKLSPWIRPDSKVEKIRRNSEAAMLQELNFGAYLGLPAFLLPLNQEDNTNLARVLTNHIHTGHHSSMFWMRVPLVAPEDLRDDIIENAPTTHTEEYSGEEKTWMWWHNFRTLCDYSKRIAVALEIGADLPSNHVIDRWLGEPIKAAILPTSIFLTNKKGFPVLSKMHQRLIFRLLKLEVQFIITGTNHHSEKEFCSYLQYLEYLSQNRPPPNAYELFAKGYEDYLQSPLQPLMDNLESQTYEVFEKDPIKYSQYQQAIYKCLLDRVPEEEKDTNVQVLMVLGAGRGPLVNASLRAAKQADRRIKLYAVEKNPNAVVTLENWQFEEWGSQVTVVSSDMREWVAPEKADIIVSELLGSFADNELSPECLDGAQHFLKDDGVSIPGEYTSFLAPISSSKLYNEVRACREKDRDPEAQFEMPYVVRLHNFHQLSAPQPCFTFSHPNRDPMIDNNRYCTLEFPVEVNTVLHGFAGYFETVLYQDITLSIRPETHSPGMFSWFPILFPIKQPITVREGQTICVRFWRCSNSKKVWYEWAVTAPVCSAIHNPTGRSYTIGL
T1 sequence (Q9BQA1 whole entry partner): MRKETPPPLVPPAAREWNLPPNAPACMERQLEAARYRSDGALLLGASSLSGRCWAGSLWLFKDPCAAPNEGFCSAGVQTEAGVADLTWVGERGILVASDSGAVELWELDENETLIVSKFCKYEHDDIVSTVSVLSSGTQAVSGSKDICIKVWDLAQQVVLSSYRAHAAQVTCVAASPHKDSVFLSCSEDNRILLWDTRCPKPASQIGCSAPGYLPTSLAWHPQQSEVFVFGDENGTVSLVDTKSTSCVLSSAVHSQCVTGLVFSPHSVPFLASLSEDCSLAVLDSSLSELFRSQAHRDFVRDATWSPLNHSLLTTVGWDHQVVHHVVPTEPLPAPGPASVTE

| Compound | pIC50 [1] | tumor sizes over time relative to control mice [2] | mRNA expression of IL8 and TNFα [3] | activation of NF-κB (luciferase) [4] | dimethylation levels at R30 of p65 [5] | pIC50 [6] | body weights over the course of treatment [7] | pIC50 [8] | extent of 3D colony formation [9] | pIC50 [10] |
| --- | --- | --- | --- | --- | --- | --- | --- | --- | --- | --- |
| Cl.Clc1ccc(C(OCCN2CCCCC2)c2ccccc2)cc1 (centres unmarked) [Clo, Cloperastine hydrochloride] | 4.57 | significantly reduced tumor sizes | significant decrease | concurrent decrease | reduction in the dimethylation levels at R30 | 4.54 to 4.59 | body weights remained similar | 4.47 to 4.74 | marked decrease | ~4.52 |
| CCOc1nc2cccc(C(=O)OC(C)OC(=O)OC3CCCCC3)c2n1Cc1ccc(-c2ccccc2-c2nn[nH]n2)cc1 (centres unmarked) [Can, Candesartan cilexetil] | 4.48 | remarkably reduced tumor sizes | significant decrease | concurrent decrease | reduction in the dimethylation levels at R30 | 4.70 to 4.74 | body weights remained similar | 4.77 to 4.82 | marked decrease | ~4.70 |
